Experimental findings from US8426602B2, “Heteroaryl-substituted dicyanopyridines and their use” (Bayer Intellectual Property GmbH, priority 2008, dated 2013) are described below.

Common to all, as to format: cell-based
The target in assay [1] is T1, adenosine receptor subtype A1 (A1-Gα 16 fusion construct) (Homo sapiens, UniProt P30542).
T1 construct: "an A1-Gα 16 fusion construct
T1 sequence (P30542 1-326): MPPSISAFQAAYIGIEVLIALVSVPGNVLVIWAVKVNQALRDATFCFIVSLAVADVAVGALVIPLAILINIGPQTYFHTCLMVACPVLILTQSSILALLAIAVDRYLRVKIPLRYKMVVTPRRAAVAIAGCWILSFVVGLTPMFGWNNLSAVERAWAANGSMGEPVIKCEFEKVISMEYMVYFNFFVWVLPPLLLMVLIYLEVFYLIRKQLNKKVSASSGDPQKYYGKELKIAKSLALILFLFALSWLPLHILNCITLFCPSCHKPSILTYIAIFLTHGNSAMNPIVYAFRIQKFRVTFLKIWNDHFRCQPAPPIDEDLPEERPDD
The experiment in a line: Indirect determination of adenosine antagonism via gene expression (NFAT luciferase), A1-Gα16 cells. Conditions: CHO K1 A1-Gα16 cells; agonist 25 nM CPA. The text has this: (§1) B-5. Indirect Determination of Adenosine Antagonism Via Gene Expression
For determination of adenosine antagonism on the adenosine receptor subtype A1, once again CHO K1 cells are stably transfected, but this time with a Ca^2+-sensitive reporter construct (NFAT-TA-Luc; Clontech) and an A1-Gα 16 fusion construct. This receptor chimera is, in contrast to the native A1 receptor (Gαi-coupling), coupled to the phospholipase C. The luciferase is expressed here as a function of the cytosolic Ca^2+concentration.
(§2) The permanent cell lines are cultured in DMEM/F12 (Cat.No. BE04-687Q; BioWhittaker) with 10% FCS (fetal calf serum) and various additives (20 ml/liter 1 M HEPES (Cat. No. 15630; Gibco), 20 ml/liter GlutaMAX (Cat. No. 35050-038, Gibco), 14 ml/liter MEM sodium pyruvate (Cat. No. 11360-039; Gibco) 10 ml/liter PenStrep (Cat. No. 15070-063; Gibco)) at 37° C. under 5% carbon dioxide, and split twice weekly.
For testing in the 384-well plate format, the cells are sown at 2000 cells/well in 25 μl/well sowing medium and cultured at 37° C. under 5% carbon dioxide until substance testing. The A2a and A2b cells are sown, 24 h before substance testing, in medium with additives and 5% FCS, the base medium used for the A2a cells being DMEM/F12 and the base medium used for the A2b cells being OptiMEM (Cat. No. 31985-047; Gibco). […] The luciferase activity is detected with a luminescence reader. […]

Assay [2] concerns the target T2, adenosine receptor subtype A2b (Homo sapiens, UniProt P29275).
T2 construct: expressed in transfected cells; host or cells: CHO K1
T2 sequence (P29275 1-332): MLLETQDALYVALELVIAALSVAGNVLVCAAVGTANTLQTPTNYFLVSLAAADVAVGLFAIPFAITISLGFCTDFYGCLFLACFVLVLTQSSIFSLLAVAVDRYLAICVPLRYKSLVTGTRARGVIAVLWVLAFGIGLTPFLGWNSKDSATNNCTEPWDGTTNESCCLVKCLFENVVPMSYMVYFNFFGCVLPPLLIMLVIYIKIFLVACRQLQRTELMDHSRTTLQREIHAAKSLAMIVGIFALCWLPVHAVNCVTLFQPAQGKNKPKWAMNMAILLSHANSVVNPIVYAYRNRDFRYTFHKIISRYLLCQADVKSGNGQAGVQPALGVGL
The experiment in a line: Indirect determination of adenosine antagonism via gene expression (CRE luciferase), A2b cells. Conditions: table after B-5; CHO K1 A2b cells; agonist 30 nM NECA.
From the text: as §1
(§3) Cells of the permanent line CHO K1 (Chinese Hamster Ovary) are stably transfected with a reporter construct (CRE luciferase) and the cDNA for the adenosine receptor subtype A2a or A2b. A2a or A2b receptors are coupled via Gas proteins to the adenylate cyclase. Through receptor activation, the adenylate cyclase is activated and therefore the cAMP level in the cell increases. Via the reporter construct, a cAMP-dependent promoter, the change in the cAMP level is coupled to luciferase expression.
as §2
(§4) For testing in the 384-well plate format, the cells are sown at 2000 cells/well in 25 μl/well sowing medium and cultured at 37° C. under 5% carbon dioxide until substance testing. […] The luciferase activity is detected with a luminescence reader. […]

The target in assay [3] is T3, adenosine receptor subtype A2a (Homo sapiens, UniProt P29274).
T3 construct: expressed in transfected cells; host or cells: CHO K1
T3 sequence (P29274 whole entry): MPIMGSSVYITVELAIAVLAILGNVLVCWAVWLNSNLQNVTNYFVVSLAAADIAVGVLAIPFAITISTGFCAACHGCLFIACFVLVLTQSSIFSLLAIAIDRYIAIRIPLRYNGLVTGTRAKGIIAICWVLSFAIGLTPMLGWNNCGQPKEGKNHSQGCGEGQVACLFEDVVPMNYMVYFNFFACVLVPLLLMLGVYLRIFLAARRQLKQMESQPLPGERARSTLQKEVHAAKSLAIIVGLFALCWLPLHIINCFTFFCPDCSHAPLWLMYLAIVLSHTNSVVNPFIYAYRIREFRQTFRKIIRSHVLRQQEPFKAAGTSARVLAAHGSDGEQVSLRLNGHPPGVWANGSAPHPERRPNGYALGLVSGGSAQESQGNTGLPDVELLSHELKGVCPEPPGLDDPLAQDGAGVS
As to the kind of experiment: Indirect determination of adenosine antagonism via gene expression (CRE luciferase), A2a cells. Conditions: table after B-5; CHO K1 A2a cells; agonist 30 nM NECA.
From the text: as §1, §3, §2, §4

What is called IC50 is the concentration that gives 50% inhibition. What is called EC50 is the concentration at which the effect is half-maximal. Higher therefore signals weaker potency. Consider `CNC(=O)c1cc(CSc2nc(N)c(C#N)c(-c3cc[nH]n3)c2C#N)ccn1` [Example 15], for which the concentration for half-maximal inhibition (IC50) in assay [1] came out at 0.0005 µM. Moreover, the EC50 in assay [2] was 0.04 µM; in assay [3] it was ≥ 50 µM.
For the molecule `CNC(=O)c1cc(CSc2nc(NCCO)c(C#N)c(-c3cc[nH]n3)c2C#N)ccn1` [Example 29], the IC50 in assay [1] worked out at 0.0036 µM. In assay [2], this molecule showed an EC50 of 0.267 µM.
